The source of these data is patent publication US10730882B2, “2-aminoquinazoline derivatives as P70S6 kinase inhibitors” (SENTINEL ONCOLOGY LIMITED, priority 2015, dated 2020).

Sequence of p70S6K (h) (P23443 whole entry): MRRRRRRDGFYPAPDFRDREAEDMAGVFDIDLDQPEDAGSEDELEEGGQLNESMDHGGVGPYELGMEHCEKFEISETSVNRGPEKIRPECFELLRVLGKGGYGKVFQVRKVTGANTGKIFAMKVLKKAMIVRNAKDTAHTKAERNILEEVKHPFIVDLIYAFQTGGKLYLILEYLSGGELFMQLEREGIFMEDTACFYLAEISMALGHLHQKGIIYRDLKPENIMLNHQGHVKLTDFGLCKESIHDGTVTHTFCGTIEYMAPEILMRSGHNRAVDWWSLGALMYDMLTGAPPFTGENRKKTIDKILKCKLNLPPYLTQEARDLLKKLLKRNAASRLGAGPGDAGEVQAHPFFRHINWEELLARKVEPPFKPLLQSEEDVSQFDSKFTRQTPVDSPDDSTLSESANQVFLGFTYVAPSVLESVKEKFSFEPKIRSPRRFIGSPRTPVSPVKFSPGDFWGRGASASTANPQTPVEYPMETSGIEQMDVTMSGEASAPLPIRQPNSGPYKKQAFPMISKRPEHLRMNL

System in one data set: not listed separately
Briefly: in vivo cassette mouse model: brain and plasma concentrations following oral dosing. As to conditions: brain and plasma, male CD-1 mice, 2.5 mg/kg per compound, read-out: (b) Brain:Plasma ratio at 3 hours. The protocol:
(b) Evaluation of Brain and Plasma Concentrations in an In Vivo Cassette Mouse Model
The compounds of this invention were evaluated in an in vivo cassette mouse model to determine brain and plasma concentrations following oral dosing. This is an industry-standard and recognised means to assess brain penetration of small molecules (for recent literature article, refer to: in vitro permeability analysis, pharmacokinetic and brain distribution study in mice of imperatorin, isoimperatorin and cnidilin in Radix Angelicae Dahuricae, Fitoterapia, Volume 85, March 2013, Pages 144-153). It is also recognised that higher brain concentrations (and higher ratios of brain:plasma concentration) lead to greater exposure in the brain—this is clearly advantageous if the brain is the site of action.
For a single cassette study, male CD-1 mice were used (n=3 per timepoint, three timepoints: 1.0 hr, 3.0 hr and 8.0 hr).
5 compounds were dosed PO per cassette (dose level 2.5 mg/kg per compound, dose conc. 0.25 mg/ml, dose volume 10.0 ml/kg).
Formulation used to solubilize compounds: 10% DMSO/90% hydroxypropyl-β-cyclodextrin (20% w/v aqueous)
Sampling was terminal and plasma and brain matrices were generated. To prepare plasma samples, protein was precipitated using acetonitrile. To prepare brain samples, homogenisation and protein precipitation was performed with acetonitrile. Samples were analysed using HPLC-TOF MS using electrospray ionisation.
The brain and plasma concentrations and brain-plasma ratios observed for the compounds tested are set out in the table below.
Turning to `C[C@@H](Nc1ncc2cc(-c3ncnc4[nH]ncc34)ccc2n1)c1ccc(F)cc1` [Example 4, ((R)-1-(4-Fluoro-phenyl)-ethyl)-[6-(1H-pyrazolo[3,4-d]pyrimidin-4-yl)-quinazolin-2-yl]-amine], the Kp at 3 h amounted to 2.2.
As for `Fc1cccc(CNc2ncc3cc(-c4ncnc5[nH]ncc45)ccc3n2)c1` [Example 10, (3-Fluorobenzyl)-[6-(1H-pyrazolo[3,4-d]pyrimidin-4-yl)-quinazolin-2-yl]-amine], the Kp at 3 h was 1.7.

Staying with this data set, now noted: brain, male CD-1 mice, 2.5 mg/kg per compound, read-out: (b) Brain conc. at 3 hours.
For the molecule `C[C@@H](Nc1ncc2cc(-c3ncnc4[nH]ncc34)ccc2n1)c1ccc(F)cc1` [Example 4, ((R)-1-(4-Fluoro-phenyl)-ethyl)-[6-(1H-pyrazolo[3,4-d]pyrimidin-4-yl)-quinazolin-2-yl]-amine], the concentration at 3 h came to 1510 nM.
For `Fc1cccc(CNc2ncc3cc(-c4ncnc5[nH]ncc45)ccc3n2)c1` [Example 10, (3-Fluorobenzyl)-[6-(1H-pyrazolo[3,4-d]pyrimidin-4-yl)-quinazolin-2-yl]-amine], the concentration at 3 h was found to be 840 nM.

Still in this data set, the particulars now being: plasma, male CD-1 mice, 2.5 mg/kg per compound, read-out: (b) Plasma conc. at 3 hours.
For `C[C@@H](Nc1ncc2cc(-c3ncnc4[nH]ncc34)ccc2n1)c1ccc(F)cc1` [Example 4, ((R)-1-(4-Fluoro-phenyl)-ethyl)-[6-(1H-pyrazolo[3,4-d]pyrimidin-4-yl)-quinazolin-2-yl]-amine], the concentration at 3 h came to 680 nM.
Take `Fc1cccc(CNc2ncc3cc(-c4ncnc5[nH]ncc45)ccc3n2)c1` [Example 10, (3-Fluorobenzyl)-[6-(1H-pyrazolo[3,4-d]pyrimidin-4-yl)-quinazolin-2-yl]-amine]: the concentration at 3 h was determined as 500 nM.

A further data set addresses p70S6K (h) (Homo sapiens (Human), UniProt P23443). Briefly: p70S6K (h) kinase assay (radiometric, [γ-33P-ATP]). The class given is biochemical. To be noted: read-out: (a) p70S6K1 IC50. The protocol: (a) Determination of p70S6 Inhibitory Activity
The ability of compounds of the invention to inhibit P70S6 kinase may be determined using the protocol below.
20 mM MOPS, 1 mM EDTA, 0.01% Brij-35, 5% Glycerol, 0.1% b-mercaptoethanol, 1 mg/mL BSA
In a final reaction volume of 25 μL, p70S6K (h) (5-10 mU) is incubated with 8 mM MOPS pH 7.0, 0.2 mM EDTA, 100 μM KKRNRTLTV, 10 mM Mg acetate and [γ-33P-ATP](specific activity approx. 500 cpm/pmol, concentration as required). The reaction is initiated by the addition of the MgATP mix. After incubation for 40 minutes at room temperature, the reaction is stopped by the addition of 5 μL of a 3% phosphoric acid solution. 10 μL of the reaction mixture is then spotted onto a P30 filtermat and washed three times for 5 minutes in 75 mM phosphoric acid and once in methanol prior to drying and scintillation counting.
Usually IC50 stands for the midpoint of a concentration-inhibition curve. For the molecule `C[C@H](Nc1ncc2cc(-c3ncnc4[nH]ncc34)ccc2n1)c1ccccc1` [Example 29, ((S)-1-Phenyl-ethyl)-[6-(1H-pyrazolo[3,4-d]pyrimidin-4-yl)-quinazolin-2-yl]-amine], the half-inhibitory concentration (IC50) is over 3000 nM.
The same measure, in the same setting: in the case of `C[C@@H](Nc1ncc2cc(-c3ncnc4[nH]ncc34)ccc2n1)c1ccc(F)cc1` [Example 4, ((R)-1-(4-Fluoro-phenyl)-ethyl)-[6-(1H-pyrazolo[3,4-d]pyrimidin-4-yl)-quinazolin-2-yl]-amine] it was 22 nM.
On the same count and under the same terms, next, `CS(=O)(=O)Nc1cccc(CNc2ncc3cc(-c4ncnc5[nH]ncc45)ccc3n2)c1` [Example 26, N-(3-{[6-(1H-Pyrazolo[3,4-d]pyrimidin-4-yl)-quinazolin-2-ylamino]-methyl}-phenyl)-methanesulfonamide]: 67 nM.
Same read-out and setting: next, `C[C@@H](Nc1ncc2cc(-c3ncnc4[nH]ncc34)ccc2n1)c1ccccc1O` [Example 35, 2-{(R)-1-[6-(1H-Pyrazolo[3,4-d]pyrimidin-4-yl)-quinazolin-2-ylamino]-ethyl}-phenol]: 20 nM.
In the case of `C[C@@H](Nc1ncc2cc(-c3ccnc4[nH]ncc34)ccc2n1)c1ccccc1` [Example 13, ((R)-1-Phenyl-ethyl)-[6-(1H-pyrazolo[3,4-b]pyridin-4-yl)-quinazolin-2-yl]-amine], the IC50 is 43 nM.
Still for that read-out and setting: in the case of `C[C@@H](Nc1ncc2cc(-c3ccnc4[nH]ccc34)ccc2n1)c1ccccc1` [Example 15, ((R)-1-Phenyl-ethyl)-[6-(1H-pyrrolo[2,3-b]pyridin-4-yl)-quinazolin-2-yl]-amine] it was 97 nM; in that of `CN(Cc1ccc(F)cc1)c1ncc2cc(-c3ncnc4[nH]ncc34)ccc2n1` [Example 6, (4-Fluorobenzyl)-[6-(1H-pyrazolo[3,4-d]pyrimidin-4-yl)-quinazolin-2-yl]-methylamine], 147 nM.
Still for that read-out and setting: in the case of `c1ccc(CNc2ncc3cc(-c4ncnc5[nH]ncc45)ccc3n2)cc1` [Example 21, Benzyl-[6-(1H-pyrazolo[3,4-d]pyrimidin-4-yl)-quinazolin-2-yl]-amine] it was 71 nM.
For `Cc1n[nH]c2ncnc(-c3ccc4nc(N[C@H](C)c5ccccc5)ncc4c3)c12` [Example 22, [6-(3-Methyl-1H-pyrazolo[3,4-d]pyrimidin-4-yl)-quinazolin-2-yl]-((R)-1-phenyl-ethyl)-amine], the half-maximal inhibitory concentration (IC50) is 131 nM.
As for `C[C@@H](Nc1ncc2cc(-c3ncnc4[nH]ncc34)ccc2n1)c1cccc(Cl)c1` [Example 2, ((R)-1-(3-Chloro-phenyl)-ethyl)-[6-(1H-pyrazolo[3,4-d]pyrimidin-4-yl)-quinazolin-2-yl]-amine], the half-inhibitory concentration (IC50) turned out to be 30 nM.
Take `OC[C@@H](Nc1ncc2cc(-c3ncnc4[nH]ncc34)ccc2n1)c1ccccc1` [Example 5, ((S)-2-Hydroxy-1-phenyl-ethyl)-[6-(1H-pyrazolo[3,4-d]pyrimidin-4-yl)-quinazolin-2-yl]-amine]: the IC50 turned out to be 24 nM.
Same read-out and setting: in the case of `Fc1cccc(CNc2ncc3cc(-c4ncnc5[nH]ncc45)ccc3n2)c1` [Example 10, (3-Fluorobenzyl)-[6-(1H-pyrazolo[3,4-d]pyrimidin-4-yl)-quinazolin-2-yl]-amine] it was 18 nM; in that of `c1ccc(CN(C[C@H]2COCCN2)c2ncc3cc(-c4ncnc5[nH]ncc45)ccc3n2)cc1` [Example 18, Benzyl-(S)-1-morpholin-3-ylmethyl-[6-(1H-pyrazolo[3,4-d]pyrimidin-4-yl)-quinazolin-2-yl]-amine], 25 nM; in that of `C[C@@H](Nc1ncc2cc(-c3ncnc4[nH]cnc34)ccc2n1)c1ccccc1` [Example 20, ((R)-1-Phenyl-ethyl)-[6-(9H-purin-6-yl)-quinazolin-2-yl]-amine], 167 nM.
Same read-out and setting: in the case of `C[C@@H](Nc1ncc2ccc(-c3ncnc4[nH]ncc34)cc2n1)c1ccccc1` [Example 12, ((R)-1-Phenyl-ethyl)-[7-(1H-pyrazolo[3,4-d]pyrimidin-4-yl)-quinazolin-2-yl]-amine] it was over 3000 nM; in that of `Fc1ccccc1CNc1ncc2cc(-c3ncnc4[nH]ncc34)ccc2n1` [Example 24, (2-Fluoro-benzyl)-[6-(1H-pyrazolo[3,4-d]pyrimidin-4-yl)-quinazolin-2-yl]-amine], 204 nM; in that of `CN(C)CCN(Cc1ccccc1)c1ncc2cc(-c3ncnc4[nH]ncc34)ccc2n1` [Example 16, N-Benzyl-N′,N′-dimethyl-N-[6-(1H-pyrazolo[3,4-d]pyrimidin-4-yl)-quinazolin-2-yl]-ethane-1,2-diamine], 106 nM.
In the case of `CN(Cc1ccccc1)c1ncc2cc(-c3ncnc4[nH]ncc34)ccc2n1` [Example 7, Benzyl-[6-(1H-pyrazolo[3,4-d]pyrimidin-4-yl)-quinazolin-2-yl]-methylamine], the IC50 was 33 nM.
As to `COc1cccc(CNc2ncc3cc(-c4ncnc5[nH]ncc45)ccc3n2)c1` [Example 23, (3-Methoxy-benzyl)-[6-(1H-pyrazolo[3,4-d]pyrimidin-4-yl)-quinazolin-2-yl]-amine], the half-maximal inhibitory concentration (IC50) turned out to be 118 nM.
`c1ccc(CN(C[C@@H]2COCCN2)c2ncc3cc(-c4ncnc5[nH]ncc45)ccc3n2)cc1` [Example 17, Benzyl-(R)-1-morpholin-3-ylmethyl-[6-(1H-pyrazolo[3,4-d]pyrimidin-4-yl)-quinazolin-2-yl]-amine]: the IC50 was 110 nM.
`C[C@@H](Nc1ncc2cc(-c3ncnc4[nH]ccc34)ccc2n1)c1ccccc1` [Example 14, ((R)-1-Phenyl-ethyl)-[6-(7H-pyrrolo[2,3-d]pyrimidin-4-yl)-quinazolin-2-yl]-amine]: the IC50 was 57 nM.
The same measure, in the same setting: next, `C[C@@H](Nc1ncc2cc(-c3ncnc4[nH]cc(C#N)c34)ccc2n1)c1ccccc1` [Example 34, 4-[2-((R)-1-Phenyl-ethylamino)-quinazolin-6-yl]-7H-pyrrolo[2,3-d]pyrimidine-5-carbonitrile]: 346 nM.
On the same count and under the same terms, in the case of `Fc1ccc(CNc2ncc3cc(-c4ncnc5[nH]ncc45)ccc3n2)cc1` [Example 9, (4-Fluorobenzyl)-[6-(1H-pyrazolo[3,4-d]pyrimidin-4-yl)-quinazolin-2-yl]-amine] it was 55 nM.
Take `Fc1ccc(CNc2ncc3cc(-c4ncnc5[nH]ncc45)ccc3n2)cc1F` [Example 25, (3,4-Difluoro-benzyl)-[6-(1H-pyrazolo[3,4-d]pyrimidin-4-yl)-quinazolin-2-yl]-amine]: the concentration for half-maximal inhibition (IC50) came to 49 nM.
Same read-out and setting: in the case of `C[C@H](c1ccccc1)N(C)c1ncc2cc(-c3ncnc4[nH]ncc34)ccc2n1` [Example 8, ((R)-1-Phenyl-ethyl)-[6-(1H-pyrazolo[3,4-d]pyrimidin-4-yl)-quinazolin-2-yl]-methylamine] it was 108 nM; in that of `C[C@@H](Nc1ncc2cc(-c3ncnc4[nH]ncc34)ccc2n1)c1cccc(NS(C)(=O)=O)c1` [Example 30, N-(3-{(R)-1-[6-(1H-Pyrazolo[3,4-d]pyrimidin-4-yl)-quinazolin-2-ylamino]-ethyl}-phenyl)-methanesulfonamide], 23 nM.
On the same count and under the same terms, in the case of `Clc1cccc(CNc2ncc3cc(-c4ncnc5[nH]ncc45)ccc3n2)c1` [Example 11, (3-Chlorobenzyl)-[6-(1H-pyrazolo[3,4-d]pyrimidin-4-yl)-quinazolin-2-yl]-amine] it was 145 nM; in that of `OCC[C@@H](Nc1ncc2cc(-c3ncnc4[nH]ncc34)ccc2n1)c1ccccc1` [Example 31, (R)-3-Phenyl-3-[6-(1H-pyrazolo[3,4-d]pyrimidin-4-yl)-quinazolin-2-ylamino]-propan-1-ol], 10 nM.
The same measure, in the same setting: next, `C[C@@H](Nc1ncc2cc(-c3ncnc4[nH]ncc34)ccc2n1)c1c(F)cccc1F` [Example 33, [(R)-1-(2,6-Difluoro-phenyl)-ethyl]-[6-(1H-pyrazolo[3,4-d]pyrimidin-4-yl)-quinazolin-2-yl]-amine]: 28 nM.
For the molecule `COc1cccc([C@@H](C)Nc2ncc3cc(-c4ncnc5[nH]ncc45)ccc3n2)c1` [Example 27, [(R)-1-(3-Methoxy-phenyl)-ethyl]-[6-(1H-pyrazolo[3,4-d]pyrimidin-4-yl)-quinazolin-2-yl]-amine], the IC50 turned out to be 41 nM.
